Experimental data from ChEMBL document CHEMBL1123432, “Methotrexate analogues. 28. Synthesis and biological evaluation of new gamma-monoamides of aminopterin and methotrexate” (J Med Chem, 1986).
Where “and” joins values, the source holds several entries; their conditions need not be identical. Equal entries are not always repeated.

Experiments:
L1210 [1] = assay: Compound was tested for its inhibitory concentration to inhibit the growth of wild type L1210 cells and a subline (L1210 / R81).; format: functional, cell-based; settings: Mus musculus
L1210 [2] = assay: Compound was tested for its inhibitory concentration to inhibit the growth of wild type L1210 cells.; format: functional, cell-based, Mus musculus
Mus musculus [3] = assay: Median Survival days of mice infected with L1210 leukemia cells at dose 40 mg/kg relative to that of 9 days for control in expt 1; Toxic; format: functional, organism-based; set-up: dose 40 mg/kg
Dihydrofolate reductase [4] = biological target: T1, Dihydrofolate reductase (Mus musculus, UniProt P00375); assay: biochemical
T1 sequence (P00375 whole entry): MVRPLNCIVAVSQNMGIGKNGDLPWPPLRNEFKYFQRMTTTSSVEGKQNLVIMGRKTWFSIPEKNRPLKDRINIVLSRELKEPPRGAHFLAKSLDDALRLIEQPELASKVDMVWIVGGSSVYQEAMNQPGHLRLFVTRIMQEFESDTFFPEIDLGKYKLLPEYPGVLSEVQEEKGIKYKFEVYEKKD
Description: Compound was tested for its inhibitory concentration to inhibit the enzyme Dihydro Folate Reductase (DHFR) from murine L1210 leukemia cells.

Mus musculus [5] = assay: Increase in life span of mice with L1210 leukemia cells at a dose of 40 mg/kg in expt 2; Toxic; format: functional, organism-based; set-up: dose 40 mg/kg
Mus musculus [6] = assay: Increase in life span of mice with L1210 leukemia cells at a dose of 80 mg/kg in expt 2; format: functional
Mus musculus [7] = species on record: Mus musculus; assay: Compound was tested against weight change in mice with L1210 leukemia cells on 7 th Day at Dose 10 mg / kg; format: functional; settings: at 10 mg/kg
Homo sapiens [8] = species on record: Homo sapiens; assay: Compound was tested for its inhibitory concentration against human leukemic lymphoblasts (CEM Cells).; format: functional; settings: CCRF-CEM
Mus musculus [9] = assay: Median Survival days of mice infected with L1210 leukemia cells at dose 20 mg/kg relative to that of 9 days for control in expt 1; format: functional
Mus musculus [10] = species on record: Mus musculus; assay: Compound was tested against weight change in mice with L1210 leukemia cells on 10 th Day at Dose 20 mg / kg; settings: at 20 mg/kg
Mus musculus [11] = assay: Median Survival days of mice infected with L1210 leukemia cells at dose 10 mg/kg relative to that of 9 days for control in expt 1; format: functional
Mus musculus [12] = assay: Increase in life span of mice with L1210 leukemia cells at a dose of 10 mg/kg in expt 1; format: functional
[13] = biological target: T2, Dihydrofolate reductase (Mus musculus) (UniProt P00375); settings: L1210
T2 sequence (whole entry): T1 sequence (P00375 whole entry)
Description: Compound was tested for inhibition of the enzyme DiHydroFolate Reductase (DHFR) from murine L1210 leukemia cells

L1210 [14] = assay: Compound was tested for its inhibitory concentration to inhibit the growth of wild type L1210 cells; Mean of four separate assays; format: functional, cell-based; settings: Mus musculus
Mus musculus [15] = species on record: Mus musculus; assay: Compound was tested against weight change in mice with L1210 leukemia cells on 10 th Day at Dose 40 mg / kg; settings: at 40 mg/kg
Mus musculus [16] = assay: Median Survival days of mice infected with L1210 leukemia cells at dose 80 mg/kg relative to that of 9 days for control in expt 1; Toxic; format: functional, organism-based; set-up: dose 80 mg/kg
Mus musculus [17] = species on record: Mus musculus; assay: Compound was tested against weight change in mice with L1210 leukemia cells on 10 th Day at Dose 80 mg / kg; settings: at 80 mg/kg
Mus musculus [18] = assay: Increase in life span of mice with L1210 leukemia cells at a dose of 80 mg/kg in expt 2; Toxic; format: functional, organism-based; set-up: dose 80 mg/kg
Homo sapiens [19] = species on record: Homo sapiens; assay: Compound was tested for its inhibitory concentration against human leukemic lymphoblasts (CEM Cells) and a resistant subline (CEM / MTX).; format: functional; settings: CCRF-CEM
Dihydrofolate reductase [20] = biological target: T1, Dihydrofolate reductase; assay: Compound was tested for its inhibitory concentration to inhibit the enzyme Dihydro Folate Reductase ( DHFR ) from murine L1210 leukemia cells.; format: cell-based
L1210 [21] = assay: Compound was tested for its inhibitory concentration to inhibit the growth of wild type L1210 cells and a subline ( L1210 / R81 ).; format: functional, cell-based; settings: Mus musculus
Mus musculus [22] = assay: Median Survival days of mice infected with L1210 leukemia cells at dose 80 mg/kg relative to that of 9 days for control; format: functional
Mus musculus [23] = assay: Median Survival days of mice infected with L1210 leukemia cells at dose 40 mg/kg relative to that of 9 days for control; format: functional
Mus musculus [24] = assay: Increase in life span of mice with L1210 leukemia cells at a dose of 20 mg/kg; format: functional
Mus musculus [25] = assay: Increase in life span of mice with L1210 leukemia cells at a dose of 40 mg/kg; format: functional
Mus musculus [26] = assay: Increase in life span of mice with L1210 leukemia cells at a dose of 80 mg/kg; format: functional
Mus musculus [27] = assay: Median Survival days of mice infected with L1210 leukemia cells at dose 20 mg/kg relative to that of 9 days for control; format: functional
Mus musculus [28] = species on record: Mus musculus; assay: Compound was tested against weight change in mice with L1210 leukemia cells on 7 th Day at Dose 100 mg / kg; format: functional; settings: at 100 mg/kg
Mus musculus [29] = assay: Median Survival days of mice infected with L1210 leukemia cells at dose 80 mg/kg relative to that of 9 days for control in expt 2; format: functional
Mus musculus [30] = assay: Median Survival days of mice infected with L1210 leukemia cells at dose 100 mg/kg relative to that of 9 days for control in expt 2; format: functional
Mus musculus [31] = assay: Median Survival days of mice infected with L1210 leukemia cells at dose 40 mg/kg relative to that of 9 days for control in expt 1; format: functional
Mus musculus [32] = assay: Increase in life span of mice with L1210 leukemia cells at a dose of 40 mg/kg in exp 1; format: functional
Mus musculus [33] = assay: Increase in life span of mice with L1210 leukemia cells at a dose of 100 mg/kg; format: functional
Mus musculus [34] = assay: Median Survival days of mice infected with L1210 leukemia cells at dose 80 mg/kg relative to that of 9 days for control in expt 1; format: functional
Mus musculus [35] = assay: Increase in life span of mice with L1210 leukemia cells at a dose of 80 mg/kg in exp 1; format: functional
Mus musculus [36] = assay: Median Survival days of mice infected with L1210 leukemia cells at dose 60 mg/kg relative to that of 9 days for control in expt 2; format: functional
Mus musculus [37] = assay: Increase in life span of mice with L1210 leukemia cells at a dose of 60 mg/kg in expt 1; format: functional
Mus musculus [38] = assay: Increase in life span of mice with L1210 leukemia cells at a dose of 80 mg/kg in expt 1; format: functional
Mus musculus [39] = assay: Increase in life span of mice with L1210 leukemia cells at a dose of 100 mg/kg in expt 1; format: functional
Mus musculus [40] = assay: Increase in life span of mice with L1210 leukemia cells at a dose of 40 mg/kg in expt 1; format: functional
Mus musculus [41] = species on record: Mus musculus; assay: Compound was tested against weight change in mice with L1210 leukemia cells on 10 th Day at Dose 60 mg / kg; settings: at 60 mg/kg

| Compound | IC50 (L1210 [1]) [nM] | IC50 (L1210 [2]; Mus musculus, L1210) [nM] | IC50 (Dihydrofolate reductase [4]) [nM] | IC50 (Homo sapiens [8]) [nM] | Survival (Mus musculus [9]) [days] | Weight change (Mus musculus [10]) [%] | IC50/[E] [13] | Weight change (Mus musculus [15]) [%] | Weight change (Mus musculus [17]) | IC50 (Homo sapiens [19]) [nM] | IC50 (L1210 [2]; l1210) | ILS at 80 mg/kg (Mus musculus [26]) [%] | Weight change (Mus musculus [28]) [%] | Survival (Mus musculus [29]) [days] | Survival (Mus musculus [30]) [days] | Survival (Mus musculus [31]) [days] | Survival (Mus musculus [34]) [days] | further results |
| --- | --- | --- | --- | --- | --- | --- | --- | --- | --- | --- | --- | --- | --- | --- | --- | --- | --- | --- |
| Nc1nc(N)c2nc(CNc3ccc(C(=O)NC(CCC(=O)Nc4ccc5c(c4)OCO5)C(=O)O)cc3)cnc2n1 (stereo unspecified) | 28000 | 3.2 | 45 | 140 | 14 | 3 | 1.1 | -20 | -26% | 1000 |  |  |  |  |  |  |  | Survival (Mus musculus [3]): Toxic; ILS (Mus musculus [5]): Toxic; ILS at 80 mg/kg (Mus musculus [6]): 33%; Weight change (Mus musculus [7]): 7%; Survival (Mus musculus [11]): 12 days; ILS at 10 mg/kg (Mus musculus [12]): 56%; IC50 (L1210 [14]): 0.39 nM; Survival (Mus musculus [16]): Toxic; ILS (Mus musculus [18]): Toxic |
| Nc1nc(N)c2nc(CNc3ccc(C(=O)NC(CCC(=O)Nc4ccc(O)c(O)c4)C(=O)O)cc3)cnc2n1 (stereo unspecified) |  |  |  |  |  |  |  |  |  |  | 37 nM and 6 nM |  |  |  |  |  |  | IC50 (Dihydrofolate reductase [20]): 57 nM; IC50 (L1210 [21]): 23000 nM |
| Nc1nc(N)c2nc(CNc3ccc(C(=O)NC(CCC(=O)N[C@]45C[C@H]6C[C@H](C[C@H](C6)C4)C5)C(=O)O)cc3)cnc2n1 (stereo partly specified) | 25000 | 680 | 100 | 4500 |  |  | 2.5 |  | 17% | 16000 | 510 nM | 22 |  |  |  |  |  | Survival (Mus musculus [22]): 10 days; Survival (Mus musculus [23]): 9 days; ILS at 20 mg/kg (Mus musculus [24]): -11%; ILS at 40 mg/kg (Mus musculus [25]): 0%; Survival (Mus musculus [27]): 8 days |
| Nc1nc(N)c2nc(CNc3ccc(C(=O)NC(CCC(=O)NCc4c(Cl)cccc4Cl)C(=O)O)cc3)cnc2n1 (stereo unspecified) | 61000 | 3.7 | 80 |  |  |  | 2 | 6 | 3% and 9% |  | 2 nM | 44 | -3 | 13 | 15 | 13 | 14 | ILS at 40 mg/kg (Mus musculus [32]): 56%; ILS at 100 mg/kg (Mus musculus [33]): 67%; ILS at 80 mg/kg (Mus musculus [35]): 44% |
| CN(Cc1cnc2nc(N)nc(N)c2n1)c1ccc(C(=O)NC(CCC(=O)Nc2ccc3c(c2)OCO3)C(=O)O)cc1 (stereo unspecified) | 25000 | 2.9 | 42 |  | 11 | 11 | 1.1 | 10 | 6% and -5% |  |  |  | 1 | 16 | 16 | 13 | 15 | Survival (Mus musculus [36]): 14 days; ILS at 60 mg/kg (Mus musculus [37]): 56%; ILS at 80 mg/kg (Mus musculus [38]): 67%; ILS at 100 mg/kg (Mus musculus [39]): 78%; ILS at 40 mg/kg (Mus musculus [40]): 78%; Weight change (Mus musculus [41]): 3% |
